Consider four molecules from US20130065260A1, “Compositions, Methods and Uses for Simultaneous Assay of Thrombin and Plasmin Generation” (The Regents of the University of Colorado, a body corporate, priority 2009, published 2013).

One test deals with plasmin. Kind of test: Simultaneous thrombin and plasmin generation (STP) assay, plasmin generation. It counts as biochemical, human. The note with it: data not shown; for effect on plasmin generation at heparin 1 U/mL: heparin concentration 1 U/mL.
Another test relates to thrombin. Kind of test: Simultaneous thrombin and plasmin generation (STP) assay, thrombin generation. It counts as biochemical, human. The following applies: data not shown; for effect on thrombin generation at heparin 1 U/mL: heparin concentration 1 U/mL. How it is done: Reactant solution is prepared as described previously for the CloFAL assay developed in our laboratory. Briefly, lipidated recombinant human tissue factor (TF) (American Diagnostica Inc, Stamford, Conn.), non-lipidated recombinant human TF (American Diagnostica Inc), and recombinant two-chain tissue plasminogen activator (tPA) (American Diagnostica Inc) are added to a stock solution of Tris-buffered saline (TBS; 66 mM Tris, 130 mM NaCl, pH=7.0) containing 34 mM CaCl2, to a concentration of 10 pM of TF (made from 8.7 pM non-lipidated TF and 1.3 pM lipidated TF) and 900 ng/mL of tPA. Final concentrations are 5 pM TF and 450 ng/mL tPA after addition of reactant solution to plasma samples, as described below. The assay blank consists of TBS alone. The reactant solution is freshly prepared from stored stock solutions of TBS, aliquoted TF, and aliquoted tPA just prior to assay. Final concentrations of TF and tPA ranging from 0-10 pM and 0-900 ng/mL, respectively, were investigated during assay development, with ultimate concentrations of these reagents (as well as ratio of lipidated to non-lipidated TF) selected based upon empiric experiments designed to optimize precision and analytical sensitivity to pathologically and physiologically altered states of coagulation and fibrinolysis, as previously performed with the CloFAL assay
Two fluorometric substrates were used for the detection of the key enzymes, thrombin and plasmin. […]
For each patient sample to be analyzed, 90 μL of reactant solution was added simultaneously to each well in a flat-bottom, black, 96 well Costar assay plate (Fisher Scientific, Santa Clara, Calif.) using a multi-tip automated pipette. […] The plate was then placed into the fluorescent spectrophotometer (Multi-Mode Microplate Reader Synergy 2, Bio-Tek Instruments, Winooski, Vt.) where it was pre-warmed at 37 ° C. for three minutes. […] The plate was then drawn back into the fluorescent spectrophotometer where the sample is initially mixed for five seconds followed by fluorescent intensity measurements taken from each well every 45 seconds for four hours at a fluorescent emission of […] (as determined by the chosen fluorescent substrates). […] The kinetic fluorometric intensity data were exported to Microsoft Excel for additional data analyses in order to generate the aforementioned calculated parameters from the raw data. […]

[1] abbreviates: normal plasma, corn trypsin inhibitor added to citrate whole blood collection tubes, relative to its absence.

With porcine unfractionated heparin sodium, the “effect on plasmin generation at heparin 1 U/mL” value with plasmin is on record as “ablation”. Moreover, the “effect on thrombin generation at heparin 1 U/mL” value with thrombin is reported as “ablation”. Take corn trypsin inhibitor: in the test on plasmin (setting [1]), the “STP findings (plasmin generation) with contact pathway inhibition” value is “did not alter STP findings”. In the test on thrombin (setting [1]), the “STP findings (thrombin generation) with contact pathway inhibition” value is “did not alter STP findings”. In the case of dalteparin, the “effect on plasmin generation at heparin 1 U/mL” value in the test on plasmin is “ablation”. In addition, in the test with thrombin, the “effect on thrombin generation at heparin 1 U/mL” value is on record as “ablation”.

B1: TF: recombinant human tissue factor, lipidated and non-lipidated, initiates coagulation (protein, UniProt P13726 33-295, looked up)
Tissue factor: SGTTNTVAAYNLTWKSTNFKTILEWEPKPVNQVYTVQISTKSGDWKSKCFYTTDTECDLTDEIVKDVKQTYLARVFSYPAGNVESTGSAGEPLYENSPEFTPYLETNLGQPTIQSFEQVGTKVNVTVEDERTLVRRNNTFLSLRDVFGKDLIYTLYYWKSSSSGKKTAKTNTNEFLIDVDKGENYCFSVQAVIPSRTVNRKSTDSPVECMGQEKGEFREIFYIIGAVVFVVIILVIILAISLHKCRKAGVGQSWKENSPLNVS
modifications: lipidated and non-lipidated
notes: recombinant human tissue factor, lipidated and non-lipidated, initiates coagulation
As for B1, the “thrombin generation capacity, response to exogenous TF” value with thrombin (in vitro) is listed as “concentration-responsiveness”.
